Assay results taken from US12673961B2 (Agios Pharmaceuticals, Inc., priority 2022, dated 2026).

Biological target: T1, human PAH with the R408W mutation (Homo sapiens, UniProt P00439, R408W)
T1 construct: expressed in transfected cells
T1 sequence (P00439 1-452 R408W): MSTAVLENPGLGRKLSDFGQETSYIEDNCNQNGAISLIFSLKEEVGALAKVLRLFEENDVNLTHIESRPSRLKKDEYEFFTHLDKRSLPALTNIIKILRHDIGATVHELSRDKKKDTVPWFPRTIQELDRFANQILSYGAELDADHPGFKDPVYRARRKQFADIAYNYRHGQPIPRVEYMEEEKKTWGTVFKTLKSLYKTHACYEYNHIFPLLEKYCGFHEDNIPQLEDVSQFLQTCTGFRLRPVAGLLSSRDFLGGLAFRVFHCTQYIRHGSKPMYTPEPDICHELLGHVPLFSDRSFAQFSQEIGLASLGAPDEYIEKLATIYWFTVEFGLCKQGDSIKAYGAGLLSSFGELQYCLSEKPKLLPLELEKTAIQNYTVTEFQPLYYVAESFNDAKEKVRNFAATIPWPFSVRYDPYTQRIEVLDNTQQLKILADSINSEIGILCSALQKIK
Assay: Cell Based Phenylalanine Flux Assay;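 note: Ten-point dose curve from 2-fold serial dilutions, run in duplicate at 0.5% DMSO final, tracer step used 20 µM sepiapterin and 800 µM labeled phenylalanine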
Design: scale not given here
Conditions: A375 cells expressing R408W PAH; 24 hrs with compound, then 20 μM sepiapterin and 800 μM 13C9,15N-Phenylalanine for 4 hours; 13C-Tyrosine in media by LC-MS; average where tested multiple times

AC50	Structure (SMILES)
E, E	Cc1cccn2nc(C3c4nc[nH]c4CCN3C(=O)c3ccnn3C)cc12 (stereo not drawn)
E, E	Cc1ccn2nc(C3c4nc[nH]c4CCN3C(=O)c3oc(C(C)(C)O)nc3C(F)F)cc2c1 (stereo not drawn)
E, E	COc1cccn2nc(C3c4nc[nH]c4CCN3C(=O)c3ccnn3C(C)C)cc12 (stereo not drawn)

Same assay, conditions: A375 cells expressing R408W PAH; 24 hrs with compound, then 20 μM sepiapterin and 800 μM 13C9,15N-Phenylalanine for 4 hours; 13C-Tyrosine in media by LC-MS; average where tested multiple times; read-out: AC50

AC50 [nM]	Structure (SMILES)
1000 to 5000	Cc1cccn2nc([C@@H]3c4nc[nH]c4CCN3c3nnc(C(=O)N(C)C)o3)cc12 (single isomer, unassigned)
1000 to 5000	CC1(c2nnc(N3CCc4[nH]cnc4C3c3cc4ccccn4n3)o2)CC1 (stereo not drawn)

Structure (SMILES)	AC50 [nM]
Cn1nc(C(F)F)cc1C(=O)N1CCc2[nH]cnc2[C@@H]1c1cc2ccccn2n1 (single isomer, unassigned)	> 5000

Same assay, conditions: A375 cells expressing human R408W PAH; 24 hrs compound incubation; 13C-Tyrosine by LC-MS; average where tested multiple times; read-out: AC50

AC50 [nM]	Structure (SMILES)
1000 to 5000	O=C(c1nnc(C2CC2)o1)N1CCc2[nH]cnc2[C@@H]1c1cc2cccc(F)n2n1 [Example 1247, (R)-(5-cyclopropyl-1,3,4-oxadiazol-2-yl)(4-(7-fluoropyrazolo[1,5-a]pyridin-2-yl)-6,7-dihydro-1H-imidazo[4,5-c]pyridin-5(4H)-yl)methanone]
< 500	O=C(c1ocnc1C(F)F)N1CCc2[nH]cnc2[C@H]1c1cc2ccc(C(F)(F)F)cn2n1 [Example 1104, (S)-(4-(difluoromethyl)oxazol-5-yl)(4-(6-(trifluoromethyl)pyrazolo [1,5-a]pyridin-2-yl)-6,7-dihydro-1H-imidazo[4,5-c]pyridin-5(4H)-yl)methanone]
> 5000	C[C@@H](O)c1nc(C(F)F)c(C(=O)N2CCc3[nH]cnc3[C@@H]2c2cc3c(F)cccn3n2)o1 [Example 711, (4-(difluoromethyl)-2-((R)-1-hydroxyethyl)oxazol-5-yl)((R)-4-(4-fluoropyrazolo [1,5-a]pyridin-2-yl)-6,7-dihydro-1H-imidazo[4,5-c]pyridin-5(4H)-yl)methanone]
< 500	COc1cccn2nc([C@@H]3c4nc[nH]c4CCN3C(=O)c3cnn4ccccc34)cc12 [Example 1326, (S)-(4-(4-methoxypyrazolo [1,5-a]pyridin-2-yl)-6,7-dihydro-1H-imidazo [4,5-c]pyridin-5(4H)-yl)(pyrazolo[1,5-a]pyridin-3-yl)methanone]
< 500	Cc1cccc2cc([C@@H]3c4nc[nH]c4CCN3C(=O)c3oc(C4(O)CC4)nc3C(F)F)nn12 [Example 1280, (S)-(4-(difluoromethyl)-2-(1-hydroxycyclopropyl)oxazol-5-yl)(4-(7-methylpyrazolo[1,5-a]pyridin-2-yl)-6,7-dihydro-1H-imidazo[4,5-c]pyridin-5(4H)-yl)methanone]
< 500	CC(C)(F)c1nnc(C(=O)N2CCc3[nH]cnc3[C@H]2c2cc3c(Cl)cccn3n2)o1 [Example 1109, (S)-(4-(4-chloropyrazolo [1,5-a]pyridin-2-yl)-6,7-dihydro-1H-imidazo[4,5-c]pyridin-5(4H)-yl)(5-(2-fluoropropan-2-yl)-1,3,4-oxadiazol-2-yl)methanone]

Same assay, conditions: A375 cells expressing human R408W PAH; 24 hrs with compound, then sepiapterin and 13C9,15N-Phenylalanine for 4 hours; 13C-Tyrosine by LC-MS; average where tested multiple times; read-out: AC50

AC50 [nM]	Structure (SMILES)
> 5000	Clc1cccn2nc([C@H]3c4nc[nH]c4CCN3c3nnc(-c4cnccn4)o3)cc12 [Example 2160, (R)-2-(4-(4-chloropyrazolo [1,5-a]pyridin-2-yl)-1,4,6,7-tetrahydro-5H-imidazo[4,5-c]pyridin-5-yl)-5-(pyrazin-2-yl)-1,3,4-oxadiazole]
500 to 1000	CC(C)c1nnc(N2CCc3[nH]cnc3C2c2cc3c(F)cccn3n2)o1 (stereo in doubt) [Example 2323, (S)-2-(4-(4-fluoropyrazolo [1,5-a]pyridin-2-yl)-1,4,6,7-tetrahydro-5H-imidazo [4,5-c]pyridin-5-yl)-5-isopropyl-1,3,4-oxadiazole]
1000 to 5000	O=C(c1nnc(C2CC(F)(F)C2)o1)N1CCc2[nH]cnc2[C@@H]1c1cc2c(Cl)cccn2n1 [Example 1586, (R)-(4-(4-chloropyrazolo [1,5-a]pyridin-2-yl)-6,7-dihydro-1H-imidazo [4,5-c]pyridin-5(4H)-yl)(5-(3,3-difluorocyclobutyl)-1,3,4-oxadiazol-2-yl)methanone]
> 5000	Cc1cccc2cc([C@H]3c4nc[nH]c4CCN3c3nnc(C(C)(F)F)o3)nn12 [Example 2328, (R)-2-(1,1-difluoroethyl)-5-(4-(7-methylpyrazolo[1,5-a]pyridin-2-yl)-1,4,6,7-tetrahydro-5H-imidazo[4,5-c]pyridin-5-yl)-1,3,4-oxadiazole]
> 5000	CC(C)c1cccn2nc([C@H]3c4nc[nH]c4CCN3c3nnc(C4(C)CC4)o3)cc12 [Example 2228, (R)-2-(4-(4-isopropylpyrazolo [1,5-a]pyridin-2-yl)-1,4,6,7-tetrahydro-5H-imidazo [4,5-c]pyridin-5-yl)-5-(1-methylcyclopropyl)-1,3,4-oxadiazole]
< 500	Fc1cccc(F)c1-c1nnc(N2CCc3[nH]cnc3[C@H]2c2cc3c(F)cccn3n2)o1 [Example 1865, (S)-2-(2,6-difluorophenyl)-5-(4-(4-fluoropyrazolo[1,5-a]pyridin-2-yl)-1,4,6,7-tetrahydro-5H-imidazo[4,5-c]pyridin-5-yl)-1,3,4-oxadiazole]
500 to 1000	CC(C)c1cccn2nc([C@@H]3c4nc[nH]c4CCN3c3nnc(-c4cnccn4)o3)cc12 [Example 2177, (S)-2-(4-(4-isopropylpyrazolo [1,5-a]pyridin-2-yl)-1,4,6,7-tetrahydro-5H-imidazo [4,5-c]pyridin-5-yl)-5-(pyrazin-2-yl)-1,3,4-oxadiazole]
> 5000	CCc1cccn2nc([C@H]3c4nc[nH]c4CCN3C(=O)c3nnc(C(C)(C)F)o3)cc12 [Example 1923, (R)-(4-(4-ethylpyrazolo [1,5-a]pyridin-2-yl)-1,4,6,7-tetrahydro-5H-imidazo [4,5-c]pyridin-5-yl)(5-(2-fluoropropan-2-yl)-1,3,4-oxadiazol-2-yl)methanone]
500 to 1000	CC1(c2nnc(N3CCc4[nH]cnc4[C@H]3c3cc4c(C5CC5)cccn4n3)o2)CC1 [Example 2227, (S)-2-(4-(4-cyclopropylpyrazolo [1,5-a]pyridin-2-yl)-1,4,6,7-tetrahydro-5H-imidazo [4,5-c]pyridin-5-yl)-5-(1-methylcyclopropyl)-1,3,4-oxadiazole]
> 5000	Cc1c[nH]nc1-c1nnc(C(=O)N2CCc3[nH]cnc3[C@@H]2c2cc3c(F)cccn3n2)o1 [Example 2297, (R)-(4-(4-fluoropyrazolo [1,5-a]pyridin-2-yl)-1,4,6,7-tetrahydro-5H-imidazo[4,5-c]pyridin-5-yl)(5-(4-methyl-1H-pyrazol-3-yl)-1,3,4-oxadiazol-2-yl)methanone]
500 to 1000	Cc1cccnc1-c1nnc(N2CCc3[nH]cnc3[C@H]2c2cc3cccc(C(F)F)n3n2)o1 [Example 2352, (S)-2-(4-(7-(difluoromethyl)pyrazolo[1,5-a]pyridin-2-yl)-1,4,6,7-tetrahydro-5H-imidazo [4,5-c]pyridin-5-yl)-5-(3-methylpyridin-2-yl)-1,3,4-oxadiazole]
> 5000	O=C(c1nnc(C2CCC2)o1)N1CCc2[nH]cnc2[C@@H]1c1cc2ccccn2n1 [Example 1515, (R)-(5-cyclobutyl-1,3,4-oxadiazol-2-yl)(4-(pyrazolo[1,5-a]pyridin-2-yl)-6,7-dihydro-1H-imidazo[4,5-c]pyridin-5(4H)-yl)methanone]
< 500	Cc1cccnc1-c1nnc(N2CCc3[nH]cnc3[C@H]2c2cc3cccc(Cl)n3n2)o1 [Example 2307, (S)-2-(4-(7-chloropyrazolo [1,5-a]pyridin-2-yl)-1,4,6,7-tetrahydro-5H-imidazo [4,5-c]pyridin-5-yl)-5-(3-methylpyridin-2-yl)-1,3,4-oxadiazole]
1000 to 5000	Cc1nnc(C(=O)N2CCc3[nH]cnc3[C@H]2c2cc3c(OC(F)(F)F)cccn3n2)o1 [Example 2218, (S)-(5-methyl-1,3,4-oxadiazol-2-yl)(4-(4-(trifluoromethoxy)pyrazolo [1,5-a]pyridin-2-yl)-6,7-dihydro-1H-imidazo[4,5-c]pyridin-5(4H)-yl)methanone]
> 5000	Fc1ccc(-c2nnc(N3CCc4[nH]cnc4[C@@H]3c3cc4c(F)cccn4n3)o2)cc1 [Example 1952, (R)-2-(4-fluorophenyl)-5-(4-(4-fluoropyrazolo[1,5-a]pyridin-2-yl)-1,4,6,7-tetrahydro-5H-imidazo[4,5-c]pyridin-5-yl)-1,3,4-oxadiazole]
> 5000	O=C(c1cnn2cc(C3CC3)ccc12)N1CCc2[nH]cnc2[C@@H]1c1cc2c(C(F)(F)F)cccn2n1 [Example 1717, (R)-(6-cyclopropylpyrazolo [1,5-a]pyridin-3-yl)(4-(4-(trifluoromethyl)pyrazolo [1,5-a]pyridin-2-yl)-6,7-dihydro-1H-imidazo[4,5-c]pyridin-5(4H)-yl)methanone]

Structure (SMILES)	AC50 [nM]
FC(F)(F)c1ccc(N2CCc3[nH]cnc3[C@H]2c2cc3cccc(Cl)n3n2)nc1 [Example 2136, (S)-4-(7-chloropyrazolo [1,5-a]pyridin-2-yl)-5-(5-(trifluoromethyl)pyridin-2-yl)-4,5,6,7-tetrahydro-1H-imidazo[4,5-c]pyridine]	< 500
c1cnc(N2CCc3[nH]cnc3[C@H]2c2cc3ccccn3n2)nc1 [Example 1592, (S)-4-(pyrazolo[1,5-a]pyridin-2-yl)-5-(pyrimidin-2-yl)-4,5,6,7-tetrahydro-1H-imidazo[4,5-c]pyridine]	500 to 1000
